The target of the assay is T1, LHRH receptors (Rattus norvegicus, UniProt P30969).
T1 construct: Pituitary membranes containing LHRH receptors are prepared in batches from quick-frozen rat pituitaries; tissue Hilltop Labs; host or cells: rat pituitary membranes
T1 sequence (P30969 1-327): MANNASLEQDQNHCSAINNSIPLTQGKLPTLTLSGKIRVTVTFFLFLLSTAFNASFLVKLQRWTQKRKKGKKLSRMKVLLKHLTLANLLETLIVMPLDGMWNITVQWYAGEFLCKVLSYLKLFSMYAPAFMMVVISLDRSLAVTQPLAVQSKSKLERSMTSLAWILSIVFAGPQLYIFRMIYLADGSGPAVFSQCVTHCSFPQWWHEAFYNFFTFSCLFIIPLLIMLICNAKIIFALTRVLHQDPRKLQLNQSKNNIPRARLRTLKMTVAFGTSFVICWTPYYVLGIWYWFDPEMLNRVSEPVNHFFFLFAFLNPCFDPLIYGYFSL
The experiment in a line: Receptor Binding (radioligand receptor binding assay). The settings on record: table 4, rat pituitary membranes, radioligand 50 pM, 2 hours at 4° C.

Where [1] appears, read: read-out: Receptor Binding pkI (converted).

SMILES strings stand for the structures. Read-outs that look alike come from different tables or passages of the source. Numbered stars: 1 amine (or outer) side, 2 acyl side, 3 side chain; on linkers, the order of the positions; unused ones are H or OH. Square brackets hold non-standard residues; d marks the D form. Peptide text beside a SMILES is read from it. * marks the point of attachment. Propanoyl(3-(4-F-phenyl)) = O=C(CCc1ccc(F)cc1)*; Propanoyl(3-(4-Cl-Ph)) = O=C(CCc1ccc(Cl)cc1)*; dPhe(4-Cl) = N[C@H](Cc1ccc(Cl)cc1)C(=O)O; X10 = O=C([C@@H](Cc1cncs1)N[*:1])[*:2]; 1Nal = N[C@@H](Cc1cccc2ccccc12)C(=O)O; d1Nal = N[C@H](Cc1cccc2ccccc12)C(=O)O; d(hCit) = NC(=O)NCCCC[C@@H](N)C(=O)O; NMeY = CN[C@@H](Cc1ccc(O)cc1)C(=O)O; hhPhe = N[C@@H](CCCc1ccccc1)C(=O)O; d3Pal = N[C@H](Cc1cccnc1)C(=O)O; d2Thi = N[C@H](Cc1cccs1)C(=O)O; Nicotinoyl = O=C(c1cccnc1)*; X9 = O=C(CCc1ccc(Br)cc1)*; Bn = c1ccc(C*)cc1

On to `CCNC(=O)[C@@H]1CCCN1C(=O)[C@H](CCCNC(=N)N)NC(=O)[C@H](CC(C)C)NC(=O)[C@@H](Cc1c[nH]c2ccccc12)NC(=O)[C@H](Cc1ccc(O)cc1)N(C)C(=O)[C@H](CO)NC(=O)[C@H](Cc1cccc2ccccc12)NC(=O)CCc1ccc(Br)cc1` [Compound 160, (3-9)[N-(3-(4-Bromophenyl)propionyl) -1-Nal^3 -NMeTyr^5 -DTrp^6 -Pro^9 NHEt]LHRH] (X9-[1Nal]S[NMeY][dW]LRP-NHEt), for which the Ki under setting [1] is 0.11 nM. Regarding `CC(C)C[C@H](NC(=O)[C@@H](CCCCNC(=O)c1cccnc1)NC(=O)[C@H](Cc1ccc(O)cc1)N(C)C(=O)[C@H](CO)NC(=O)[C@@H](Cc1cccs1)NC(=O)CCc1ccc(F)cc1)C(=O)N[C@@H](CCCNC(=N)N)C(=O)N1CCC[C@H]1C(=O)N[C@H](C)C(N)=O` [Compound 161, N-[3-(4-Fluorophenyl)propionyl]-D-Thia-Ser-NMeTyr-D -Lys(N-epsilon-nicotinyl)-Leu-Arg-Pro-D-AlaNH2] ({Propanoyl(3-(4-F-phenyl))}-[d2Thi]S[NMeY][dK](Nicotinoyl)LRP[dA]-NH2), the Ki under setting [1] is 0.0151 nM. On the same count and under the same terms, the value for `CC(C)C[C@H](NC(=O)[C@@H](Cc1c[nH]c2ccccc12)NC(=O)[C@H](Cc1ccc(O)cc1)NC(=O)[C@H](CO)NC(=O)[C@@H](Cc1c[nH]c2ccccc12)NC(=O)CCc1ccc(F)cc1)C(=O)N[C@@H](CCCNC(=N)N)C(=O)N1CCC[C@H]1C(=O)N[C@H](C)C(N)=O` [Compound 162, (3-10)[N-(3-(4-Fluorophenyl)propionyl)-D-Trp^3,6 -D-Ala^10]LHRH] ({Propanoyl(3-(4-F-phenyl))}-[dW]SY[dW]LRP[dA]-NH2) was 0.0105 nM.

With `CC(C)C[C@H](NC(=O)[C@@H](Cc1c[nH]c2ccccc12)NC(=O)[C@H](Cc1ccc(O)cc1)N(C)C(=O)[C@H](CO)NC(=O)[C@@H](Cc1c[nH]c2ccccc12)NC(=O)CCc1ccc(F)cc1)C(=O)N[C@@H](CCCNC(=N)N)C(=O)N1CCC[C@H]1C(=O)N[C@H](C)C(N)=O` [Compound 164, (3-10)[N-(3-(4-Fluorophenyl)propionyl)-D-Trp^3,6 -NMeTyr^5 -D-Ala^10]LHRH] ({Propanoyl(3-(4-F-phenyl))}-[dW]S[NMeY][dW]LRP[dA]-NH2), the Ki under setting [1] was 0.0537 nM. As for `CC(C)C[C@H](NC(=O)[C@@H](CCCCN)NC(=O)[C@H](Cc1ccc(O)cc1)NC(=O)[C@H](COCc1ccccc1)NC(=O)[C@@H](Cc1cccs1)NC(=O)CCc1ccc(Cl)cc1)C(=O)N[C@@H](CCCNC(=N)N)C(=O)N1CCC[C@H]1C(=O)N[C@H](C)C(N)=O` [Compound 167, (3-10)[N-(3-(4-Chlorophenyl)propionyl)-D-Thia^3 -Ser(O-Bzl)^4 -D-Lys^6 -D-Ala^10]LHRH] ({Propanoyl(3-(4-Cl-Ph))}-[d2Thi]S(Bn)Y[dK]LRP[dA]-NH2), the Ki (Receptor Binding pkI) is 0.457 nM. For the molecule `CC(C)C[C@H](NC(=O)[C@@H](CCCCN)NC(=O)[C@H](Cc1ccc(O)cc1)N(C)C(=O)[C@H](COCc1ccccc1)NC(=O)[C@@H](Cc1cccs1)NC(=O)CCc1ccc(Cl)cc1)C(=O)N[C@@H](CCCNC(=N)N)C(=O)N1CCC[C@H]1C(=O)N[C@H](C)C(N)=O` [Compound 168, (3-10)[N-(3-(4-Chlorophenyl)propionyl)-D-Thia^3 -Ser(O-Bzl)^4 -NMeTyr^5 -D-Lys^6 -D-Ala^10]LHRH] ({Propanoyl(3-(4-Cl-Ph))}-[d2Thi]S(Bn)[NMeY][dK]LRP[dA]-NH2), under setting [1], the Ki was 0.129 nM. The same measure, in the same setting: the same measure for `CC(C)C[C@H](NC(=O)[C@@H](CCCCN)NC(=O)[C@H](Cc1ccc(O)cc1)N(C)C(=O)[C@H](CO)NC(=O)[C@@H](Cc1cccnc1)NC(=O)CCc1ccc(F)cc1)C(=O)N[C@@H](CCCNC(=N)N)C(=O)N1CCC[C@H]1C(=O)N[C@H](C)C(N)=O` [Compound 170, (3-10)[N-(3-(4-Fluorophenyl)propionyl)-D-3-Pal^3 -NMeTyr^5 -D-Lys^6 -D-Ala^10]LHRH] ({Propanoyl(3-(4-F-phenyl))}-[d3Pal]S[NMeY][dK]LRP[dA]-NH2): 0.0204 nM. Same read-out and setting: the same measure for `CC(C)C[C@H](NC(=O)[C@@H](CCCCNC(=O)c1cccnc1)NC(=O)[C@H](Cc1ccc(O)cc1)N(C)C(=O)[C@H](CO)NC(=O)[C@@H](Cc1cccnc1)NC(=O)CCc1ccc(F)cc1)C(=O)N[C@@H](CCCNC(=N)N)C(=O)N1CCC[C@H]1C(=O)N[C@H](C)C(N)=O` [Compound 171] ({Propanoyl(3-(4-F-phenyl))}-[d3Pal]S[NMeY][dK](Nicotinoyl)LRP[dA]-NH2): 0.0676 nM; for `CC(C)C[C@H](NC(=O)[C@@H](CCCCN)NC(=O)[C@H](Cc1ccc(O)cc1)N(C)C(=O)[C@H](CO)NC(=O)[C@@H](Cc1c[nH]c2ccccc12)NC(=O)CCc1ccc(F)cc1)C(=O)N[C@@H](CCCNC(=N)N)C(=O)N1CCC[C@H]1C(=O)N[C@H](C)C(N)=O` [Compound 173, (3-10)[N-(3-(4-Fluorophenyl)propionyl)-D-Trp^3 -NMeTyr^5 -D-Lys^6 -D-Ala^10]LHRH] ({Propanoyl(3-(4-F-phenyl))}-[dW]S[NMeY][dK]LRP[dA]-NH2): 0.00575 nM. The same measure, in the same setting: the value for `CC(C)C[C@H](NC(=O)[C@@H](CCCCNC(=O)c1cccnc1)NC(=O)[C@H](Cc1ccc(O)cc1)N(C)C(=O)[C@H](CO)NC(=O)[C@@H](Cc1cccc2ccccc12)NC(=O)CCc1ccc(F)cc1)C(=O)N[C@@H](CCCNC(=N)N)C(=O)N1CCC[C@H]1C(=O)N[C@H](C)C(N)=O` [Compound 174, (3-10)[N-(3-(4-Fluorophenyl)propionyl)-D-1-Nal^3 -NMeTyr^5 -D-Lys^6 (N-epsilon-nicotinyl)-D-Ala^10]LHRH] ({Propanoyl(3-(4-F-phenyl))}-[d1Nal]S[NMeY][dK](Nicotinoyl)LRP[dA]-NH2) was 0.0132 nM. In the case of `CC(C)C[C@H](NC(=O)[C@@H](CCCCN)NC(=O)[C@H](Cc1ccc(O)cc1)N(C)C(=O)[C@H](CO)NC(=O)[C@@H](Cc1ccc(Cl)cc1)NC(=O)CCc1ccc(F)cc1)C(=O)N[C@@H](CCCNC(=N)N)C(=O)N1CCC[C@H]1C(=O)N[C@H](C)C(N)=O` [Compound 175, (3-10)[N-(3-(4-Fluorophenyl)propionyl)-D-4-Cl-Phe^3 -NMeTyr^5 -D-Lys^6 -D-Ala^10]LHRH] ({Propanoyl(3-(4-F-phenyl))}-[dPhe(4-Cl)]S[NMeY][dK]LRP[dA]-NH2), the Ki under setting [1] was 0.00631 nM.

As to `CC(C)C[C@H](NC(=O)[C@@H](CCCCN)NC(=O)[C@H](Cc1ccc(O)cc1)N(C)C(=O)[C@H](CCCc1ccccc1)NC(=O)[C@@H](Cc1cccc2ccccc12)NC(=O)CCc1ccc(F)cc1)C(=O)N[C@@H](CCCNC(=N)N)C(=O)N1CCC[C@H]1C(=O)N[C@H](C)C(N)=O` [Compound 176, (3-10)[N-(3-(4-Fluorophenyl)propionyl)-D-1-Nal^3-hhPhe^4 -NMeTyr^5 -D-Lys^6 -D-Ala^10]LHRH] ({Propanoyl(3-(4-F-phenyl))}-[d1Nal][hhPhe][NMeY][dK]LRP[dA]-NH2), the Ki under setting [1] is 2.88 nM. Same read-out and setting: the same measure for `CC(C)C[C@H](NC(=O)[C@@H](CCCCNC(N)=O)NC(=O)[C@H](Cc1ccc(O)cc1)N(C)C(=O)[C@H](CO)NC(=O)[C@@H](Cc1cccc2ccccc12)NC(=O)CCc1ccc(F)cc1)C(=O)N[C@@H](CCCNC(=N)N)C(=O)N1CCC[C@H]1C(=O)N[C@H](C)C(N)=O` [Compound 178, (3-10)[N-(3-(4-Fluorophenyl)propionyl)-D-1-Nal^3 -NMeTyr^5 -D-Hcit^6 -D-Ala^10]LHRH] ({Propanoyl(3-(4-F-phenyl))}-[d1Nal]S[NMeY][d(hCit)]LRP[dA]-NH2): 0.00955 nM. Consider `CC(C)C[C@H](NC(=O)[C@@H](CO)NC(=O)[C@H](Cc1ccc(O)cc1)N(C)C(=O)[C@H](CO)NC(=O)[C@H](Cc1cccc2ccccc12)NC(=O)CCc1ccc(F)cc1)C(=O)N[C@@H](CCCNC(=N)N)C(=O)N1CCC[C@H]1C(=O)N[C@H](C)C(N)=O` [Compound 180, (3-10)[N-(3-(4-Fluorophenyl)propionyl)-1-Nal^3 -NMeTyr^5 -D-Ser^6 -D-Ala^10]LHRH] ({Propanoyl(3-(4-F-phenyl))}-[1Nal]S[NMeY][dS]LRP[dA]-NH2), for which, under setting [1], the Ki is 0.0055 nM. Turning to `CC(C)C[C@H](NC(=O)[C@@H](CO)NC(=O)[C@H](Cc1ccc(O)cc1)N(C)C(=O)[C@H](CO)NC(=O)[C@@H](Cc1cccc2ccccc12)NC(=O)CCc1ccc(F)cc1)C(=O)N[C@@H](CCCNC(=N)N)C(=O)N1CCC[C@H]1C(=O)N[C@H](C)C(N)=O` [Compound 181, (3-10)[N-(3-(4-Fluorophenyl)propionyl)-D-1-Nal^3 -NMeTyr^5 -D-Ser^6 -D-Ala^10]LHRH] ({Propanoyl(3-(4-F-phenyl))}-[d1Nal]S[NMeY][dS]LRP[dA]-NH2), the Ki under setting [1] is 0.00398 nM. Regarding `CC(C)C[C@H](NC(=O)[C@@H](CCCCN)NC(=O)[C@H](Cc1ccc(O)cc1)N(C)C(=O)[C@H](CO)NC(=O)[C@@H](Cc1cncs1)NC(=O)CCc1ccc(F)cc1)C(=O)N[C@@H](CCCNC(=N)N)C(=O)N1CCC[C@H]1C(=O)N[C@H](C)C(N)=O` [Compound 183, (3-10)[N-(3-(4-Fluorophenyl)propionyl)-D-Thiaz^3 -NMeTyr^5 -D-Lys^6 -D-Ala^10]LHRH] ({Propanoyl(3-(4-F-phenyl))}-[X10]S[NMeY][dK]LRP[dA]-NH2), the Ki under setting [1] is 0.0263 nM. Regarding `CC(C)C[C@H](NC(=O)[C@@H](Cc1cccnc1)NC(=O)[C@H](Cc1ccc(O)cc1)N(C)C(=O)[C@H](CO)NC(=O)[C@@H](Cc1cccc2ccccc12)NC(=O)CCc1ccc(F)cc1)C(=O)N[C@@H](CCCNC(=N)N)C(=O)N1CCC[C@H]1C(=O)N[C@H](C)C(N)=O` [Compound 184, (3-10)[N-(3-(4-Fluorophenyl)propionyl)-D-1-Nal^3 -NMeTyr^5 -D-3-Pal^6 -D-Ala^10]LHRH] ({Propanoyl(3-(4-F-phenyl))}-[d1Nal]S[NMeY][d3Pal]LRP[dA]-NH2), the Ki under setting [1] is 0.00631 nM.
